Counter-ions that a name gives are not always drawn. Some results are limits rather than exact numbers.

The first assay relates to recombinant NL-Rluc virus (NL4-3 with Renilla Luciferase gene) in MT-2 cells. The assay is described as follows: Inhibition of HIV replication (NL-Rluc luciferase reporter virus, MT-2 cells). It counts as cell-based, human immunodeficiency virus (HIV). The settings on record: NL43, 120 h, read-out: Activity.
For the compound `Cc1cccc(-c2cc3nc(C)c(C(OC(C)(C)C)C(=O)O)c(-c4ccc5c(c4)CCCO5)n3n2)c1` (centres unmarked) [Example 114, 2-tert-Butoxy-2-(7-(chroman-6-yl)-5-methyl-2-m-tolylpyrazolo[1,5-a]pyrimidin-6-yl)acetic acid, TFA salt], the EC50 lay within 0.1 to 1 µM.

Regarding `Cc1ccccc1-c1cccc(-c2cc3nc(C)c([C@H](OC(C)(C)C)C(=O)O)c(-c4cc(F)c5c(c4C)CCCO5)n3n2)c1` [Example 115, (2S)-2-(tert-Butoxy)-2-(7-(8-fluoro-5-methylchroman-6-yl)-5-methyl-2-(2′-methyl-[1,1′-biphenyl]-3-yl)pyrazolo[1,5-a]pyrimidin-6-yl)acetic acid], the EC50 is under 0.1 µM.

Consider `COc1ccccc1-c1cccc(-c2cc3nc(C)c([C@H](OC(C)(C)C)C(=O)O)c(-c4cc(F)c5c(c4C)CCCO5)n3n2)c1` [Example 116, (2S)-2-(tert-Butoxy)-2-(7-(8-fluoro-5-methylchroman-6-yl)-2-(2′-methoxy-[1,1′-biphenyl]-3-yl)-5-methylpyrazolo[1,5-a]pyrimidin-6-yl)acetic acid], for which the EC50 was under 0.1 µM.

Take `COc1ccncc1-c1cccc(-c2cc3nc(C)c([C@H](OC(C)(C)C)C(=O)O)c(-c4cc(F)c5c(c4C)CCCO5)n3n2)c1` [Example 117, (2S)-2-(tert-Butoxy)-2-(7-(8-fluoro-5-methylchroman-6-yl)-2-(3-(4-methoxypyridin-3-yl)phenyl)-5-methylpyrazolo[1,5-a]pyrimidin-6-yl)acetic acid]: the EC50 is under 0.1 µM.

`Cc1nc2cc(-c3cccc(-c4ccccc4F)c3)nn2c(-c2cc(F)c3c(c2C)CCCO3)c1[C@H](OC(C)(C)C)C(=O)O` [Example 118, (2S)-2-(tert-Butoxy)-2-(7-(8-fluoro-5-methylchroman-6-yl)-2-(2′-fluoro-[1,1′-biphenyl]-3-yl)-5-methylpyrazolo[1,5-a]pyrimidin-6-yl)acetic acid]: the EC50 is under 0.1 µM.

As to `Cc1nc2cc(-c3cccc(-c4cccnc4)c3)nn2c(-c2cc(F)c3c(c2C)CCCO3)c1[C@H](OC(C)(C)C)C(=O)O` [Example 119, (2S)-2-(tert-Butoxy)-2-(7-(8-fluoro-5-methylchroman-6-yl)-5-methyl-2-(3-(pyridin-3-yl)phenyl)pyrazolo[1,5-a]pyrimidin-6-yl)acetic acid], the EC50 was under 0.1 µM.

With `Cc1nc2cc(-c3cccc(-c4ccc5c(cnn5C)c4)c3)nn2c(-c2cc(F)c3c(c2C)CCCO3)c1[C@H](OC(C)(C)C)C(=O)O` [Example 120, (2S)-2-(tert-Butoxy)-2-(7-(8-fluoro-5-methylchroman-6-yl)-5-methyl-2-(3-(1-methyl-1H-indazol-5-yl)phenyl)pyrazolo[1,5-a]pyrimidin-6-yl)acetic acid], the EC50 was under 0.1 µM.

Consider `Cc1nc2cc(-c3cccc(-c4ccncc4)c3)nn2c(-c2cc(F)c3c(c2C)CCCO3)c1[C@H](OC(C)(C)C)C(=O)O` [Example 121, (2S)-2-(tert-Butoxy)-2-(7-(8-fluoro-5-methylchroman-6-yl)-5-methyl-2-(3-(pyridin-4-yl)phenyl)pyrazolo[1,5-a]pyrimidin-6-yl)acetic acid, TFA salt], for which the EC50 is under 0.1 µM.

For `Cc1nc2cc(-c3cccc(-c4ccncc4)c3)nn2c(-c2cc(F)c3c(c2C)CCCO3)c1[C@@H](OC(C)(C)C)C(=O)O` [Example 122, (2R)-2-(tert-Butoxy)-2-(7-(8-fluoro-5-methylchroman-6-yl)-5-methyl-2-(3-(pyridin-4-yl)phenyl)pyrazolo[1,5-a]pyrimidin-6-yl)acetic acid, TFA salt], the EC50 is over 1 µM.

On to `Cc1nc2cc(-c3cccc(Cl)c3)nn2c(-c2cc(F)c3c(c2C)CCCO3)c1[C@H](OC(C)(C)C)C(=O)O` [Example 123, (2S)-2-(tert-Butoxy)-2-(2-(3-chlorophenyl)-7-(8-fluoro-5-methylchroman-6-yl)-5-methylpyrazolo[1,5-a]pyrimidin-6-yl)acetic acid, TFA salt], for which the EC50 is under 0.1 µM.

As for `Cc1nc2cc(-c3cccc(-c4ccc(F)cc4)c3)nn2c(-c2cc(F)c3c(c2C)CCCO3)c1[C@H](OC(C)(C)C)C(=O)O` [Example 124, (2S)-2-(tert-Butoxy)-2-(7-(8-fluoro-5-methylchroman-6-yl)-2-(4′-fluoro-[1,1′-biphenyl]-3-yl)-5-methylpyrazolo[1,5-a]pyrimidin-6-yl)acetic acid, TFA salt], the EC50 is under 0.1 µM.

In the case of `Cc1nc2cc(-c3cccc(-c4ccccc4)c3)nn2c(-c2cc(F)c3c(c2C)CCCO3)c1[C@H](OC(C)(C)C)C(=O)O` [Example 125, (2S)-2-(2-([1,1′-Biphenyl]-3-yl)-7-(8-fluoro-5-methylchroman-6-yl)-5-methylpyrazolo[1,5-a]pyrimidin-6-yl)-2-(tert-butoxy)acetic acid], the EC50 was under 0.1 µM.

With `Cc1ccc(-c2cccc(-c3cc4nc(C)c([C@H](OC(C)(C)C)C(=O)O)c(-c5cc(F)c6c(c5C)CCCO6)n4n3)c2)cc1` [Example 126, (2S)-2-(tert-Butoxy)-2-(7-(8-fluoro-5-methylchroman-6-yl)-2-(4′-methyl-[1,1′-biphenyl]-3-yl)-5-methylpyrazolo[1,5-a]pyrimidin-6-yl)acetic acid, TFA salt], the EC50 was under 0.1 µM.

Take `COc1ccc(-c2cccc(-c3cc4nc(C)c([C@H](OC(C)(C)C)C(=O)O)c(-c5cc(F)c6c(c5C)CCCO6)n4n3)c2)cc1` [Example 127, (2S)-2-(tert-Butoxy)-2-(7-(8-fluoro-5-methylchroman-6-yl)-2-(4′-methoxy-[1,1′-biphenyl]-3-yl)-5-methylpyrazolo[1,5-a]pyrimidin-6-yl)acetic acid, TFA salt]: the EC50 was under 0.1 µM.

Turning to `Cc1nc2cc(-c3cccc(-c4cccc(F)c4)c3)nn2c(-c2cc(F)c3c(c2C)CCCO3)c1[C@H](OC(C)(C)C)C(=O)O` [Example 128, (2S)-2-(tert-Butoxy)-2-(7-(8-fluoro-5-methylchroman-6-yl)-2-(3′-fluoro-[1,1′-biphenyl]-3-yl)-5-methylpyrazolo[1,5-a]pyrimidin-6-yl)acetic acid, TFA salt], the EC50 is under 0.1 µM.

On to `COc1cccc(-c2cccc(-c3cc4nc(C)c([C@H](OC(C)(C)C)C(=O)O)c(-c5cc(F)c6c(c5C)CCCO6)n4n3)c2)c1` [Example 129, (2S)-2-(tert-Butoxy)-2-(7-(8-fluoro-5-methylchroman-6-yl)-2-(3′-methoxy-[1,1′-biphenyl]-3-yl)-5-methylpyrazolo[1,5-a]pyrimidin-6-yl)acetic acid, TFA salt], for which the EC50 was under 0.1 µM.

On to `Cc1cccc(-c2cccc(-c3cc4nc(C)c([C@H](OC(C)(C)C)C(=O)O)c(-c5cc(F)c6c(c5C)CCCO6)n4n3)c2)c1` [Example 130, (2S)-2-(tert-Butoxy)-2-(7-(8-fluoro-5-methylchroman-6-yl)-2-(3′-methyl-[1,1′-biphenyl]-3-yl)-5-methylpyrazolo[1,5-a]pyrimidin-6-yl)acetic acid, TFA salt], for which the EC50 is under 0.1 µM.

Consider `Cc1nc2cc(-c3cccc(-c4cnn(C)c4)c3)nn2c(-c2cc(F)c3c(c2C)CCCO3)c1[C@H](OC(C)(C)C)C(=O)O` [Example 131, (2S)-2-(tert-Butoxy)-2-(7-(8-fluoro-5-methylchroman-6-yl)-5-methyl-2-(3-(1-methyl-1H-pyrazol-4-yl)phenyl)pyrazolo[1,5-a]pyrimidin-6-yl)acetic acid], for which the EC50 is under 0.1 µM.

Still in this assay, the particulars now being: NL43, 120 h, read-out: EC50 μM.
`Cc1ccccc1-c1cccc(-c2cc3nc(C)c([C@H](OC(C)(C)C)C(=O)O)c(-c4cc(F)c5c(c4C)CCCO5)n3n2)c1` [Example 115, (2S)-2-(tert-Butoxy)-2-(7-(8-fluoro-5-methylchroman-6-yl)-5-methyl-2-(2′-methyl-[1,1′-biphenyl]-3-yl)pyrazolo[1,5-a]pyrimidin-6-yl)acetic acid]: the EC50 was determined as 0.02 µM.

As for `Cc1nc2cc(-c3cccc(-c4ccc5c(cnn5C)c4)c3)nn2c(-c2cc(F)c3c(c2C)CCCO3)c1[C@H](OC(C)(C)C)C(=O)O` [Example 120, (2S)-2-(tert-Butoxy)-2-(7-(8-fluoro-5-methylchroman-6-yl)-5-methyl-2-(3-(1-methyl-1H-indazol-5-yl)phenyl)pyrazolo[1,5-a]pyrimidin-6-yl)acetic acid], the EC50 turned out to be 0.002 µM.

Values taken from patent publication US8633200B2, “Inhibitors of human immunodeficiency virus replication” (priority 2010, dated 2014).
